# Measured values reported in patent US6599521B1 (priority 2000, dated 2003).
# Legend:
# S. aureus MN8 = format: cell-based, Staphylococcus aureus; settings: 24 hours at 35° C.
# TSST-1 = format: cell-based, Staphylococcus aureus; settings: 24 hours at 35° C.
molecule,measurement,setting,value
CCCCCCCCCCCCOCCOCCOCCOCCO [Laureth-4],Final [S. aureus] (× 10^9 CFU/ml),S. aureus MN8,4.57 × 10^9 CFU/ml
same,TSST-1,TSST-1,531.8 ng/mL
CCCCCCCCCCCCCCCCCCOCCOCCO [Steareth-2],Final [S. aureus] (× 10^9 CFU/ml),S. aureus MN8,5.76 × 10^9 CFU/ml
same,TSST-1,TSST-1,680.7 ng/mL
PPG-5 Laureth-5,Final [S. aureus] (× 10^9 CFU/ml),S. aureus MN8,3.82 × 10^9 CFU/ml
same,TSST-1,TSST-1,609.2 ng/mL
